Earlier results, collected in patent US20170273935A1, “CINEOLE-CONTAINING COMPOSITION FOR NASAL APPLICATION” (Maria Clementine Martin Klosterfrau Vertriebsgesellschaft …, priority 2014, published 2017).

## CC12CCC(CC1)C(C)(C)O2 [1,8-cineole, 1,3,3-trimethyl-2-oxabicyclo[2.2.2]octane]
  solubility in water: insoluble in water
